# Laboratory results taken from patent US10357490B2, “Combinations for the treatment of neuroblastoma” (IGNYTA, INC., priority 2014, dated 2019).
# Experiments:
# [1] = system: TrkB-expressing neuroblastoma cells (SH-SY5Y cells stably transfected with TrkB); assay: Sulphorhodamine B (SRB) assay, survival and growth of TrkB-expressing neuroblastoma cells; type: cell-based; conditions: single agent; 1-100 nM; 100 ng per mL BDNF; 24, 48, 72 hours
# SY5Y-TrkB cells = assay: SY5Y-TrkB xenograft study: tumor growth and event-free survival; type: in vivo, athymic nu/nu mice; conditions: oral
# Description: N-[5-(3,5-difluorobenzyl)-1H-indazol-3-yl]-4-(4-methyl-piperazin-1-yl)-2-(tetrahydro-2H-pyran-4-ylamino) benzamide_was dissolved in DMSO to obtain stocks for in vitro studies. For in vivo xenograft experiments, N-[5-(3,5-difluorobenzyl)-1H-indazol-3-yl]-4-(4-methyl-piperazin-1-yl)-2-(tetrahydro-2H-pyran-4-ylamino) benzamide was reconstituted in 0.5% methyl cellulose (Sigma-Aldrich, viscosity 400 cP, 2% in H2O) containing 1% Tween 80 at a final dosing volume of 10 mL per kg. Prior to dosing, the formulation was stirred at room temperature for 30 min, and then sonicated in a water bath sonicator for 20 min. The formulation was made fresh every week. For the in vivo study, the animals were dosed with the formulation of N-[5-(3,5-difluorobenzyl)-1H-indazol-3-yl]-4-(4-methyl-piperazin-1-yl)-2-(tetrahydro-2H-pyran-4-ylamino) benzamide twice a day (BID) for 7 days per week at a dose of 60 mg per kg.
# Xenograft studies were performed using SH-SY5Y cells stably transfected with TrkB. Cells were grown in RPMI-1640 medium containing 10% fetal bovine serum and maintained in 150 cm^3 Costar culture flasks in a humidified atmosphere of 95% air and 5% CO2. Cells were harvested using 0.2% tetra sodium EDTA in phosphate buffered saline (PBS).
# Six-week-old athymic nu/nu mice were obtained from Jackson Laboratories. Mice were maintained at five per cage under humidity- and temperature-controlled conditions in a light/dark cycle that was set at 12-hour intervals.
# For in vivo xenograft studies, six-week-old athymic nu/nu mice were injected subcutaneously in the flank with 1×10^7 SY5Y-TrkB cells in 0.1 ml of Matrigel (BD Bioscience, Palo Alto, Calif.). Tumors were measured 2 times per week in 3 dimensions, and the volume calculated as follows: [(0.523×L×W×W)/1000]. Body weights of the mice were obtained every week and the dose of the tested compounds were adjusted accordingly. […]
structure (smiles),measurement,setting,value
"CN1CCN(c2ccc(C(=O)Nc3n[nH]c4ccc(Cc5cc(F)cc(F)c5)cc34)c(NC3CCOCC3)c2)CC1 [N-[5-(3,5-difluorobenzyl)-1H-indazol-3-yl]-4-(4-methyl-piperazin-1-yl)-2-(tetrahydro-2H-pyran-4-ylamino) benzamide]",inhibition of growth of TrkB-expressing NB cells in vitro,[1],significantly inhibited growth
same,Estimated slope from linear mixed effects model (increase of log tumor volume),"SY5Y-TrkB cells; Control vs Group 2 analysis (FIG. 3), Group 2: alone, 60 mg per kg, twice per day, 7 times per week",0.0973 per day in the log of tumor volume
same,"Estimated slope of trace in FIG. 1, linear mixed effects model","SY5Y-TrkB cells; Group 2: alone, 60 mg per kg, twice per day, 7 times per week",0.0696 per day in the log of tumor volume
same,tumor growth inhibition compared to control animals,"SY5Y-TrkB cells; single agent therapy, 60 mg per kg BID",significant tumor growth inhibition
